We go through 15 compounds from patent publication US20120202819A1, “COMBINATION THERAPY USING A BETA 3 […] RECEPTOR AGONISTS AND AN […] AGENT” (Merck Sharp & Dohme Corporation, priority 2009, published 2012).

In assay [1] the target is T1, human β3 adrenergic receptor (Homo sapiens, UniProt P13945).
T1 construct: expressed in transfected cells; host or cells: Chinese hamster ovary (CHO) cells, stably transfected
The assay is described as follows: Functional assay: cAMP production in CHO cells transfected with cloned β-adrenergic receptor. Format: cell-based. On the procedure:
Biological Assays for β3 Functional Activities: The following in vitro assays are suitable for screening compounds that have selective β3 agonist activity:
Functional Assay: cAMP production in response to ligand is measured according to Barton, et al. (1991, Agonist-induced desensitization of D2 dopamine receptors in human Y-79 retinoblastoma cells. Mol. Pharmacol. […]) modified as follows. cAMP production is measured using a homogenous time-resolved fluorescence resonance energy transfer immunoassay (LANCE™, Perkin Elmer) according to the manufacture's instructions. Chinese hamster ovary (CHO) cells, stably transfected with the cloned 13-adrenergic receptor (β1, β2 or β3) are harvested after 3 days of subculturing. Harvesting of cells is done with Enzyme-free Dissociation Media (Specialty Media). Cells are then counted and resuspended in assay buffer (Hank's Balanced salt solution supplemented with 5 mM HEPES, 0.1% BSA) containing a phosphodiesterase inhibitor (IBMX, 0.6 mM). The reaction is initiated by mixing 6,000 cells in 6 with 6 μL Alexa Fluor labeled cAMP antibody (LANCE™ kit) which is then added to an assay well containing 12 μL of compound (diluted in assay buffer to 2× final concentration). The reaction proceeds for 30 min at room temperature and is terminated by the addition of 24 detection buffer (LANCE™ kit). The assay plate is then incubated for 1 h at room temperature and time-resolved fluorescence measured on a Perkin Elmer Envision reader or equivalent. The unknown cAMP level is determined by comparing fluorescence levels to a cAMP standard curve.
The non-selective, full agonist 13-adrenergic ligand isoproterenol is used at all three receptors to determine maximal stimulation. The human β3 adrenergic receptor (AR) selective ligand (S)-N-[4-[2-[[2-hydroxy-3-(4-hydroxyphenoxy)propyl]amino]ethyl]-phenyl]-4-iodobenzenesulfonamide is used as a control in all assays. […] Data are analyzed using Microsoft Excel and Graphpad Prism or an internally developed data analysis software package.
On the technique in general: Cyclic AMP is a second messenger, typically raised through Gs and lowered through Gi signalling.

In assay [2] the test system is EFS-induced isolated detrusor muscle contractions. The assay is described as follows: EFS-induced contraction of isolated rat detrusor muscle strips, with isobologram analysis. Also on record: species or system Sprague-Dawley rats. On the procedure:
Male adult Sprague-Dawley rats were used. After euthanizing using CO2 gas, a whole bladder was removed. Longitudinal strips (about 6 mm×3 mm) of the extratrigonal portion of the detrusor muscle were prepared. […] The strips were tied at one end to the organ bath, and connected at the other end to an isometric transducer (AD Instruments) under a resting tension of 10 mN. The responses of the preparations were recorded at a sampling rate of 10 Hz by a multiple channel data acquisition system (PowerLab, AD Instruments), and measured with an analysis software (Chart, AD Instruments). After the equilibration period for at least 60 min, each tissue strip was challenged to electrical field stimulation (EFS) at 60 Hz; duration, 0.3 ms; 3 sec; 90 V to induce contractions. Upon obtaining stable contractions with EFS, compound solution (25 μL) was applied into organ bath in a cumulative manner. After 15 min of each compound treatment, EFS was applied.
Isobologram Analysis was used to evaluate the synergic effect of a combination therapy. Isobologram Analysis provides a visual assessment of the interaction of two different agents using independent statistical analysis. The statistical analysis can be accomplished from calculations of certain potency indices from single treatment of each compound and fixed-ratio combinations for the same effect.
Isobologram for some particular effect (e.g., 50% of the maximum) in which the dose of active agent A alone is A=20 and active agent B alone is B=100. The straight line connecting these intercept points (additivity line) is the locus of all dose pairs that, based on these potencies, should give the same effect, An actual dose pair such as point Q attains this effect with lesser quantities and is synergistic (or super-additive), while the dose pair denoted by point R means greater quantities are required and is therefore sub-additive.

A further assay deals with bladder capacity. Description: Bladder capacity (cystometry) in anesthetized rhesus monkeys. Format: in vivo, rhesus monkeys (Macaca mulatta). Particulars: mean of 4-6 animals. An excerpt:
Adult female rhesus monkeys (Macaca mulatta) weighed 5.3-6.2 kg (4-7 year-old) were used. The subjects were either paired or individually housed on a 12-h light/12-h dark cycle (lights on at 7:00 AM). Their diet consisted of 2050 Teklad (Harlan Laboratories, Indianapolis, Ind.) and fresh fruit or vegetable. Water was freely available. All animals were observed daily by a veterinary technician and caretakers for signs of ill health. Subjects were repeatedly used with >13-day resting period. Monkeys were anesthetized with an intramuscular injection of either Telazol (3-5 mg/kg) or ketamine (10-20 mg/kg) followed by intravenous constant rate infusion with ketamine (0.2-0,8 mg/kg/min) using a syringe pump (552222, Harvard Apparatus, Holliston, Mass.). Animals were placed in a supine position and a triple lumen balloon transurethral catheter (7.4 Fr, Cook Medical, Bloomington, Ind.) was inserted into the bladder and the balloon was inflated with 1 mL of water to secure the tip of catheter at the bladder base. The catheter was connected with an infusion pump (Gemini PC-2TX, ALARIS Medical Systems, San Diego, Calif.) for bladder filling and a pressure transducer for intravesical pressure monitoring. Intravesical pressure was continuously recorded using a multiple channel data acquisition system (Power lab, AD Instruments, Biopac systems, Colorado Springs, Colo.) at a sampling rate of 20 Hz. After confirming bladder emptiness by an ultrasonography (Logiq e vet, GE Medical Systems, Waukesha, Wis., FIG. 1A), saline was intravesically infused at 15 mL/min. When the steep rise in pressure indicative of the micturition reflex was observed, intravesical infusion was stopped and the bladder was manually emptied with a 60 ml syringe.
After two baseline cystometry readings, drug was intravenously administered three times using a rising dose paradigm with a cystometry performed 10 min after each dose. Bladder capacity was measured for each cystometry and % change from the baseline capacity was calculated. As used herein, the term “baseline capacity” or “baseline” means the average bladder capacity from two pre-dose measurements.
The reported results are mean values of % change from baseline in 4-6 animals.

The next assay concerns the target T2, muscarinic receptor M4 (Homo sapiens, UniProt P08173).
T2 sequence (P08173 1-479): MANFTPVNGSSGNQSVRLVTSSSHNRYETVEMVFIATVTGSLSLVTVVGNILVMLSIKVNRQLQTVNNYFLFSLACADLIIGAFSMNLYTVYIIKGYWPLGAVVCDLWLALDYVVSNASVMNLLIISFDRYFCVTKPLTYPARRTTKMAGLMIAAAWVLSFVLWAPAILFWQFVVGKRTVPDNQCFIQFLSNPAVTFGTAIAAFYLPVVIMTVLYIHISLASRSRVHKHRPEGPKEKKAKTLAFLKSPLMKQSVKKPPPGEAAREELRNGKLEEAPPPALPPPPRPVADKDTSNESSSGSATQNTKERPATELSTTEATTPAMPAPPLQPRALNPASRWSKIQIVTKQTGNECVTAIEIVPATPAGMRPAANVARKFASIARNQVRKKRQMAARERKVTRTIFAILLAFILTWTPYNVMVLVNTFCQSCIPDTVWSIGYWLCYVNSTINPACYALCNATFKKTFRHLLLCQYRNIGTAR
As to conditions: Ohtake et al.; cited from earlier work.

Setting [3] is: cAMP, CHO cells, read-out: human β3 functional activity.
Setting [4] is: human β3 functional activity, read-out: HUMAN β3 BINDING.

The structures appear in SMILES notation. Like-named read-outs stand apart in the source and are kept apart here. Some results are limits rather than exact numbers.

T1 sequence (P13945 whole entry): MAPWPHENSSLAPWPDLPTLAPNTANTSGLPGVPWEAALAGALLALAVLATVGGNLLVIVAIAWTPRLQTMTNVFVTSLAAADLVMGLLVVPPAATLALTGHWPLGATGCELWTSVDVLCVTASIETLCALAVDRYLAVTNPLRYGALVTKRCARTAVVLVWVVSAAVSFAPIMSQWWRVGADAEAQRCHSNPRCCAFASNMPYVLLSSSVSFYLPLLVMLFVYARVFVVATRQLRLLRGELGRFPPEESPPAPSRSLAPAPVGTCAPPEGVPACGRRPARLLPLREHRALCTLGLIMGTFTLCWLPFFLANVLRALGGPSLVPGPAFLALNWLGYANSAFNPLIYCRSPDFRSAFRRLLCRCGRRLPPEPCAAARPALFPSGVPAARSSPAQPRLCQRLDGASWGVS

Consider `Nc1nc(CC(=O)Nc2ccc(CC3CC[C@H]([C@H](O)c4ccccc4)N3)cc2)cs1` (stereo partly drawn) [Compound 1, 2-(2-Amino-1,3-thiazol-4-yl)-N-[4-({(5R)-[(R)-hydroxy(phenyl)methyl]pyrrolidinyl}methyl)phenyl]acetamide], for which the EC50 in assay [1] (setting [3]) was in the range of 1 to 10 nM. With `Nc1nc(CC(=O)Nc2ccc(C[C@@H]3CC[C@H]([C@H](O)c4ccccc4)N3)cc2)cs1` [Compound 2, 2-(2-Amino-1,3-thiazol-4-yl)-N-[4-({(2S, 5R)-[(R)-hydroxy(phenyl)methyl]pyrrolidinyl}methyl)phenyl]acetamide], the EC50 in assay [1] (setting [3]) lay within 1 to 10 nM. On the same count and under the same terms, the same measure for `Nc1nc2c(s1)CCC2C(=O)Nc1ccc(C[C@@H]2CC[C@H]([C@H](O)c3ccccc3)N2)cc1` (stereo partly drawn) [Compound 3]: < 1 nM. Consider `O=C(Cn1cnc2ccccc2c1=O)Nc1ccc(C[C@@H]2CC[C@H]([C@H](O)c3ccccc3)N2)cc1` [Compound 4], for which, in assay [1] (setting [4]), the EC50 was 1 to 10 nM.

Take `O=C(Cn1ncccc1=O)Nc1ccc(C[C@@H]2CC[C@H]([C@H](O)c3ccccc3)N2)cc1` [Compound 5]: the EC50 in assay [1] (setting [4]) lay in the range of 1 to 10 nM. Still for that read-out and setting: with `Cc1cnn(CC(=O)Nc2ccc(C[C@@H]3CC[C@H]([C@H](O)c4ccccc4)N3)cc2)c(=O)c1` [Compound 6] the figure was 1 to 10 nM; with `O=C(Cn1ncc2ccccc2c1=O)Nc1ccc(C[C@@H]2CC[C@H]([C@H](O)c3ccccc3)N2)cc1` [Compound 7], 1 to 10 nM.

As for `O=C(Cn1cccnc1=O)Nc1ccc(C[C@@H]2CC[C@H]([C@H](O)c3ccccc3)N2)cc1` [Compound 8], the EC50 in assay [1] (setting [4]) lay within 1 to 10 nM. As to `O=C(Cn1cnccc1=O)Nc1ccc(C[C@@H]2CC[C@H]([C@H](O)c3ccccc3)N2)cc1` [Compound 9], the EC50 in assay [1] (setting [4]) is 1 to 10 nM. Still for that read-out and setting: the same measure for `O=C(Cn1ccccc1=O)Nc1ccc(C[C@@H]2CC[C@H]([C@H](O)c3ccccc3)N2)cc1` [Compound 10]: 1 to 10 nM. As to `Cc1ncn(C(C)C(=O)Nc2ccc(C[C@@H]3CC[C@H]([C@H](O)c4ccccc4)N3)cc2)n1` (stereo partly drawn) [Compound 11], in assay [1] (setting [3]), the EC50 lay within 1 to 10 nM. In the case of `O=C(Nc1ccc(C[C@@H]2CC[C@H]([C@H](O)c3ccccc3)N2)cc1)[C@@H]1CCc2cccc(=O)n21` [Compound 12, (3S)-N-[4-({(2S,5R)-5-[(R)-hydroxy(phenyl)methyl]pyrrolidin-2-yl}methyl)phenyl]-5-oxo-1,2,3,5-tetrahydroindolizine-3-carboxamide], in assay [1] (setting [3]), the EC50 lay in the range of 1 to 10 nM. Moreover, in assay [2] (inhibiting EFS-induced contraction of rat bladder strips), the “times less potent than CL316243 (IC25)” value was ~100 times. For the same compound, the “IC25 (concentration which induced 25% inhibition of detrusor contraction)” value in assay [2] (single compound, rat bladder strips, EFS) is listed as 275 nM. On to `O=C(Nc1ccc(C[C@@H]2CC[C@H]([C@H](O)c3ccccc3)N2)cc1)[C@H]1CCc2cccc(=O)n21` [Compound 13, (3R)-N-[4-({(2S,5R)-5-[(R)-hydroxy(phenyl)methyl]pyrrolidin-2-yl}methyl)phenyl]-5-oxo-1,2,3,5-tetrahydroindolizine-3-carboxamide], for which the EC50 in assay [1] (setting [3]) was < 1 nM.

Regarding `O=C(Nc1ccc(C[C@@H]2CC[C@H]([C@H](O)c3ccccc3)N2)cc1)[C@@H]1CCc2nccc(=O)n21` [Compound 14, (6S)-N-[4-({(2S, 5R)-5-[(R)-hydroxy(phenyl)methyl]pyrrolidin-2-yl}methyl)phenyl]-4-oxo-4,6,7,8-tetrahydropyrrolo[1,2-α]pyrimidine-6-carboxamide], in assay [1] (setting [3]), the EC50 was in the range of 11 to 100 nM. Further, the “Bladder capacity, % change from baseline” value worked out at 4.1% in the assay with bladder capacity (mono-therapy 0.003 mg/kg iv); 4.1% with bladder capacity (mono-therapy 0.003 mg/kg iv, listed as Cpd 14); 18.0% with bladder capacity (mono-therapy 0.01 mg/kg iv); 27.3% in the assay on bladder capacity (mono-therapy 0.03 mg/kg iv); 33.9% with bladder capacity (mono-therapy 0.1 mg/kg iv); 31% in the assay on bladder capacity (mono-therapy 0.3 mg/kg iv). The “Bladder capacity, % change from baseline” value in the assay with bladder capacity (mono-therapy 1 mg/kg iv) is 55.9%. `NC(=O)C(c1ccccc1)(c1ccccc1)[C@@H]1CCN(CCc2ccc3c(c2)CCO3)C1` [Darifenacin, (S)-2-[1-[2-(2,3-dihydrobenzofuran-5-yl)ethyl]pyrrolidin-3-yl]-2,2-diphenyl-acetamide]: the “Bladder capacity, % change from baseline” value was 8.9% in the assay on bladder capacity (mono-therapy 0.01 mg/kg iv), 18.3% in the assay on bladder capacity (mono-therapy 0.03 mg/kg iv) and 29.4% in the assay with bladder capacity (mono-therapy 0.1 mg/kg iv). Also, the Ki on muscarinic receptor M4 was 52 ± 15 nM.

As usually defined, the Ki is the equilibrium dissociation constant of an inhibitor or competing ligand from its target.
